Laboratory results as given in patent publication US11377425B1, “Small molecule modulators of IL-17” (LEO Pharma A/S, priority 2018, dated 2022).

Target: T1, human IL-17AA (Homo sapiens, UniProt Q16552)
T1 construct: host or cells: HEK (human embryonic kidney) cells
T1 sequence (Q16552 24-155): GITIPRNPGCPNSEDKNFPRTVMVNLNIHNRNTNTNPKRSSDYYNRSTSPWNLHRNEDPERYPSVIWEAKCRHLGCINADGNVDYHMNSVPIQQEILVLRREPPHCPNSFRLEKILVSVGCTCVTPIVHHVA
Assay: IL-8 release assay in human epithelial keratinocytes adult (HEKa)
Assay type: cell-based
Details: HEKa cells, 3 ng/mL HEK-human IL-17AA + 10 ng/mL human TNFalpha; read-out: Rel EC50 IL-8 release assay
In short: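 Adult human epidermal keratinocytes stimulated 68-72 h at 37 °C with 3 ng/mL HEK-derived human IL-17AA plus 10 ng/mL TNF-alpha (final) in the presence of compound; TNF-alpha alone defines 100% inhibition. Secreted IL-8 measured by HTRF as percent of controls; relative IC50/Emax from four-parameter fit (r^2>0.9), cytotoxicity by PrestoBlue.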

Q: With `Cc1n[nH]c(C)c1-c1ccc(NC(=O)[C@@H](NC(=O)c2ccnn2C(C)C)C(C2CC2)C2CC2)cc1` (single isomer, unassigned) [Example 32] as the molecule, how does the EC50 read?
A: Its EC50 is < 100 nM.

Q: Which EC50 does the source give for `Cn1cncc1-c1ccc(NC(=O)[C@H](Cc2ccccc2Cl)NC(=O)OC(C)(C)C)cc1` [Example 97, tert-butyl N-[(1S)-1-[(2-chlorophenyl)methyl]-2-[4-(3-methylimidazol-4-yl)anilino]-2-oxo-ethyl]carbamate] here?
A: The EC50 was > 1000 nM.

Q: With `Cc1n[nH]c(C)c1-c1ccc(NC(=O)[C@@H](NC(=O)c2ccnn2CCN(C)C)C(C2CC2)C2CC2)cc1` [Example 131, N-[(1S)-1-(dicyclopropylmethyl)-2-[4-(3,5-dimethyl-1H-pyrazol-4-yl)anilino]-2-oxo-ethyl]-2-(2-dimethylaminoethyl) pyrazole-3-carboxamide] as the molecule, how does the EC50 read?
A: The EC50 was 100 to 1000 nM.

Q: For `Cc1n[nH]c(C)c1-c1ccc(NC(=O)C(NC(=O)c2ccnn2C)[C@H]2CCCc3ccc(F)cc32)cc1` (stereo partly shown) [Example 261], which EC50 is on record?
A: The EC50 was < 100 nM.

Q: For `Cc1n[nH]c(C)c1-c1ccc(NC(=O)[C@@H](NC(=O)c2ccnn2C)[C@H]2CCc3ccc(C#N)cc32)cc1` [Example 80, N-[(1S)-1-[(1S)-6-cyanoindan-1-yl]-2-[4-(3,5-dimethyl-1H-pyrazol-4-yl)anilino]-2-oxo-ethyl]-2-methyl-pyrazole-3-carboxamide], which EC50 is on record?
A: Its EC50 is 100 to 1000 nM.

Q: For `Cc1n[nH]c(C)c1-c1ccc(NC(=O)[C@H](Cc2ccccc2)NC(=O)c2ccnn2C)cc1` [Example 44, N-[(1S)-1-benzyl-2[4-(3,5-dimethyl-1H-pyrazol-4-yl)anilino]-2-oxo-ethyl]-2-methyl-pyrazole-3-carboxamide], which EC50 is on record?
A: The EC50 was > 1000 nM.

Q: Which EC50 does the source give for `Cc1n[nH]c(C)c1-c1ccc(NC(=O)[C@@H](NC(=O)c2ccnn2C)[C@H]2CCc3c(F)cc(F)cc32)cc1` [Example 249, N-[(1S)-1-[(1S)-4,6-difluoroindan-1-yl]-2-[4-(3,5-dimethyl-1H-pyrazol-4-yl)anilino]-2-oxo-ethyl]-2-methyl-pyrazole-3-carboxamide] here?
A: Its EC50 is < 100 nM.

Q: With `Cn1cncc1-c1ccc(NC(=O)[C@@H](NC(=O)OC(C)(C)C)C2CCC2)cc1` [Example 92, tert-butyl N-[(1S)-1-cyclobutyl-2-[4-(3-methylimidazol-4-yl)anilino]-2-oxo-ethyl]carbamate] as the molecule, how does the EC50 read?
A: Its EC50 is > 1000 nM.

Q: With `Cc1n[nH]c(C)c1-c1ccc(NC(=O)[C@@H](NC(=O)N2CCCC2C(C)C)C2CCCCC2)cc1` (stereo partly drawn) [Example 475, N-[(1S)-1-cyclohexyl-2-[4-(3,5-dimethyl-1H-pyrazol-4-yl)anilino]-2-oxo-ethyl]-2-isopropyl-pyrrolidine-1-carboxamide] as the molecule, how does the EC50 read?
A: Its EC50 is > 1000 nM.

Q: For `Cc1n[nH]c(C)c1-c1ccc(NC(=O)[C@@H](NC(=O)c2ccnn2C)[C@H]2CCCc3ccccc32)cc1` [Example 81, N-[(1S)-2-[4-(3,5-dimethyl-1H-pyrazol-4-yl)anilino]-2-oxo-1-[(1S)-tetralin-1-yl]ethyl]-2-methyl-pyrazole-3-carboxamide], which EC50 is on record?
A: Its EC50 is < 100 nM.

Q: For `Cc1n[nH]cc1-c1ccc(NC(=O)[C@@H](NC(=O)c2ccnn2C)C(c2ccccc2)c2ccccc2)cc1O` [Example 421, N-[(1S)-1-Benzhydryl-2-[3-hydroxy-4-(3-methyl-1H-pyrazol-4-yl)anilino]-2-oxo-ethyl]-2-methyl-pyrazole-3-carboxamide], which EC50 is on record?
A: The EC50 was 100 to 1000 nM.

System: not listed separately
Assay: In vivo dosing of compounds in dog (pharmacokinetics, PO and i.v.)
Parameters: species or system dog (male Beagles)
Details: male, Beagle, whole blood, oral dose of Example 32 1 mg/kg
Experimental: Example 139. In Vivo Dosing of Compounds in Dog
Dog pharmacokinetics (PK) of Examples 32 and 135 were studied in male Beagles. On the day of dosing, the animals were fasted overnight. They had free access to drinking water, except in immediate connection with dosing, and were allowed to eat from 4 hrs after dosing and onwards. The dogs were weighed on the morning prior to dosing and the individual dose volumes were adjusted on a per kg body weight basis.
Oral dosing. The dogs were dosed PO by oral gavage. The test compounds were dosed as suspensions in 1% methyl cellulose solution (2.5 mL/kg). The stomach tube was then flushed with at least 15 mL water post-dose to ensure that all test formulation entered the stomach.
Intravenous dosing. The dogs were dosed i.v. via an in-dwelling catheter in venae cephalica. The dose volume was 1 mL/kg of a solution of Example 32 (0.3 mg/mL) in HPB (hydroxypropyl beta cyclodextrin)/PEG-4 (polyethylene glycol-4)/water (20:20:60). […]
Study samples. […] The compounds were quantified in blood by means of LC-MS/MS.
Standard PK parameters were calculated using non-compartmental analysis and Phoenix WinNonLin 6.4 (Certara, Princeton, N.J.).
(§1) The bioavailabilty (F) was calculated using the equation below, where AUC is the area under the curve for the oral and i.v. dosing routes and D is the dose given i.v. or orally. […]

Q: Which bioavailability does the source give for `Cc1n[nH]c(C)c1-c1ccc(NC(=O)[C@@H](NC(=O)c2ccnn2C(C)C)C(C2CC2)C2CC2)cc1` (single isomer, unassigned) [Example 32] here?
A: Its bioavailability is 23%.

System: not listed separately
Assay: In vivo dosing of compounds in mouse (pharmacokinetics, PO and i.v.)
Details: female, Balb/C, whole blood, oral dose of Example 32 50 mg/kg
Experimental: Example 140. In Vivo Dosing of Compounds in Mouse
Mouse pharmacokinetics of Examples 32 and 135 were studied in female Balb/C mice. Animals were not fasted prior to the study and had access to water and certified rodent diet ad libitum during the study. The mice were weighed on the day of the study and the individual dose volumes were adjusted on a per kg body weight basis.
Oral dosing. The mice were dosed by oral gavage. Example 135 was dosed as a suspension in 1% methyl cellulose solution (10 mL/kg). Example 32 was dosed as a suspension in a formulation containing Betadex sulfobutyl ether sodium/PVP (polyvinyl pyrrolidone)/0.1% Citrate buffer pH 3 (20:5:75) (10 mL/kg).
Intravenous dosing. The mice were dosed i.v. via the tail vein. The dose volume was 2 mL/kg of a solution of Example 32 (0.2 mg/mL) in DMSO/ethanol/water/propylene glycol (PG) (2:8:50:40).
Study samples. Blood was collected (exactly 20 μL per time point) from the saphenous vein of each animal into K2EDTA-coated capillaries. […] The compounds were quantified in blood by means of LC-MS/MS.
Standard PK parameters were calculated using non-compartmental analysis in Phoenix WinNonLin 6.4 (Certara, Princeton, N.J.)
as §1

Q: For `Cc1n[nH]c(C)c1-c1ccc(NC(=O)[C@@H](NC(=O)c2ccnn2C(C)C)C(C2CC2)C2CC2)cc1` (single isomer, unassigned) [Example 32], which bioavailability is on record?
A: The bioavailability was 26%.
